The target in test [1] is HIV integrase (Human immunodeficiency virus type 1 group M subtype B, UniProt P12497). Nature of the test: Strand transfer assay for HIV integrase (microtiter assay, ligation of processed donor DNA to nicked host DNA).
Experimental: Strand Transfer Assay for HIV Integrase
A microtiter assay for ligation of processed donor (HIV) DNA to unspecific, nicked host DNA was conducted according to Hazuda, D. J. et al., Nucl. […] To assay inhibition of such strand transfer by HIV integrase, the reaction was conducted with inhibition having various concentrations in the range of 0.75 to 100 μM.
The target of test [2] is HIV-1 integrase (Human immunodeficiency virus type 1 group M subtype B, UniProt P12497). Nature of the test: HIV integrase substrate cleavage (trimming of the 3′ end of HIV long terminal repeat terminus).
Experimental: HIV Integrase Substrate Cleavage
An assay for trimming of the 3′ and of HIV long terminal repeat terminus by HIV-1 integrase was conducted according to LaFemina, R. L. et al., J. Virol 10, 5624 (1991), herein incorporated by reference for these purposes. To assay inhibition of HIV integrase substrate cleavage, the reaction was conducted with inhibitor having various concentrations in the range of 0.75 to 100 μM.

Among the data in patent publication US6403347B1, “HIV integrase inhibitors” (Merck & Co., Inc., priority 1999, dated 2002) are IC50 values, retold here.

Structures are written as SMILES. Where two headings read alike, the source gives them in different places.

On to `CC1Oc2cc3c(-c4c(O)cc(O)c5c(O)c6c(cc45)OC(C)C(C)C6=O)c(O)cc(O)c3c(O)c2C(=O)C1C` (single isomer, unassigned) [Compound A], for which the IC50 (commonly the midpoint of a concentration-inhibition curve) in test [1] is 12 µM; in test [2] it was 2 µM.

As to `CC1Oc2cc3c(-c4c(O)cc(O)c5c(O)c6c(cc45)OC(C)C(C)C6=O)c(O)cc(O)c3c(O)c2C(=O)C1C` (single isomer, unassigned) [Compound B], the IC50 was 12 µM in test [1] (inhibition of strand transfer by HIV integrase, concentrations 0.75 to 100 μM) and 2 µM in test [2] (inhibition of HIV integrase substrate cleavage, inhibitor concentrations 0.75 to 100 μM).

With `CC1Oc2cc3c(-c4c(O)cc(O)c5c(O)c6c(cc45)OC(C)C(C)C6=O)c(O)cc(O)c3c(O)c2OC(=O)C1C` (centres unmarked) [Compound C], the values for the IC50 in test [1] and in test [2] were 9 µM and 3 µM, respectively.

Take `Cc1oc2cc3c(-c4c(O)cc(O)c5c(O)c6c(cc45)OC(C)C(C)C6=O)c(O)cc(O)c3c(O)c2c(=O)c1C` (centres unmarked) [Compound D]: the IC50 in test [1] is 4 µM; in test [2], 1 µM.

With `COc1cc(O)c2c(OC)c3c(cc2c1-c1c(OC)cc(OC)c2c(OC)c4c(cc12)OC(C)C(C)C4=O)OC(C)C(C)C3=O` (centres unmarked) [Compound F], 40 µM corresponded to half-maximal inhibition in test [2] (IC50).

In test [2], `COc1cc(OC)c2c(OC)c3c(cc2c1-c1c(OC)cc(OC)c2c(OC)c4c(cc12)OC(C)C(C)C4=O)OC(C)C(C)C3=O` (centres unmarked) [Compound G] came in with a half-inhibitory concentration (IC50) of 60 µM.

Turning to `CC(=O)Oc1cc(OC(C)=O)c2c(OC(C)=O)c3c(cc2c1-c1c(OC(C)=O)cc(OC(C)=O)c2c(OC(C)=O)c4c(cc12)OC(C)C(C)C4=O)OC(C)C(C)C3=O` (centres unmarked) [E], the half-maximal inhibitory concentration (IC50) in test [2] worked out at 50 µM.
